Our source for the Ki values is EP2508526A1, “Spiroalkene carboxamide derivatives and their use as chemokine receptor modulators” (Ares Trading SA, priority 2011, dated 2012).

The target in this assay is T1, hCCR2b (Homo sapiens, UniProt P41597).
T1 sequence (P41597 1-360 isoform P41597-2): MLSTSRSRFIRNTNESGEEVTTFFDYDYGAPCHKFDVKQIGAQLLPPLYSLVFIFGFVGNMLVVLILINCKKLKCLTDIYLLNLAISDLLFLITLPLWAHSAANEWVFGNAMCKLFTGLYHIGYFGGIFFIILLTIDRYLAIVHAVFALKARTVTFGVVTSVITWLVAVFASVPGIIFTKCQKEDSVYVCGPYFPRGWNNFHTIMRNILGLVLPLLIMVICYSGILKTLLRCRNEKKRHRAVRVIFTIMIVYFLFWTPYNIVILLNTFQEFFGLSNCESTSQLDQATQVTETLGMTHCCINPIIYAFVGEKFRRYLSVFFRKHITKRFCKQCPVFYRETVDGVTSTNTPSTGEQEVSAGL
In words: CCR2 binding assay ([125I]MCP-1, SPA, CHO cell membranes). The conditions noted are these: membranes from CHO cells expressing hCCR2b, 50 pM [125I]MCP-1; read-out: Binding hCCR2 (Ki). More on the design: expressed in transfected cells; host or cells: CHO cells (membrane preparation). The procedure: Membranes were prepared from CHO cells expressing mCCR2b or hCCR2b for use in ligand binding studies. Cells were suspended in 50mM Tris-HCL, pH 7.4, 2 mM EDTA, 250 mM Sucrose and 1x Complete EDTA-free protease inhibitor cocktail (Roche) (Buffer A), and disrupted at 4°C by N2 decompression using a cell disruption bomb (Parr Instrument). Following centrifugation at 200 RCF for 10 min at 4°C, the supernatant was suspended in buffer A and centrifuged again at 19000 RPM (RCSC rotor SS34 code 05 Sorvall Instruments DUPONT) for 90 min at 4°C. The pellet was then suspended in 10 mM HEPES, pH 7.4, 1 mM EDTA, 250 mM Sucrose, and 1x Complete EDTA-free protease inhibitor cocktail (Buffer B) and homogenized using a potter. Membranes were flash frozen in liquid N2 and stored at -80°C. [125I] Monocyte Chemoattractant Protein -1 (MCP-1) (25µCi; Perkin Elmer) was added to test compounds in DMSO (1% final). Membranes and WGA SPA beads (GE Healthcare) were added to give a final volume of 100 µl in 96-well plates with assay concentrations of 50 pM or 100 pM [125I]Monocyte Chemoattractant Protein -1 (respectively for hCCR2b or mCCR2b), 50 mM HEPES, pH 7.4, 5 mM MgCl2, 1 mM CaCl2, 0.1% BSA, 1-5 µg/well of membranes and 100 µg/well of WGA SPA beads. Binding was performed for 90 min at RT with strong agitation of speed 5 (Heidolph Titramax 100 SCITEC) and bound radioactivity was measured on a PerkinElmer 1450 MicroBeta counter. Specific binding was calculated by subtracting remaining radioactivity in the presence of 1000-fold excess of unlabeled compound. Binding data were analyzed using the Genedata Screener® software.

Turning to `CC1=C(C(=O)N2CCN(c3cccc(C(F)(F)F)c3)CC2)C2(CCN(CCc3ccc(Cl)cc3)CC2)OC1=O` [Compound 13, 8-[2-(4-chlorophenyl)ethyl]-3-methyl-4-({4-[3-(trifluoromethyl)phenyl]piperazin-1-yl}carbonyl)-1-oxa-8-azaspiro[4.5]dec-3-en-2-one], the inhibition constant (Ki) (as a rule, a measure of affinity in units of concentration, obtained from inhibition or displacement) is less than 50 nM.
Take `CC1=C(C(=O)N2CCN(c3cccc(C(F)(F)F)c3)CC2)C2(CCN(CCc3ccccc3Cl)CC2)OC1=O` [Compound 14, 8-[2-(2-chlorophenyl)ethyl]-3-methyl-4-({4-[3-(trifluoromethyl)phenyl]piperazin-1-yl}carbonyl)-1-oxa-8-azaspiro[4.5]dec-3-en-2-one]: the Ki was 100 to 500 nM.
With `CC1=C(C(=O)N2CCN(c3cccc(C(F)(F)F)c3)CC2)C2(CCN(CCc3cccc(Cl)c3)CC2)OC1=O` [Compound 15, 8-[2-(3-chlorophenyl)ethyl]-3-methyl-4-({4-[3-(trifluoromethyl)phenyl]piperazin-1-yl}carbonyl)-1-oxa-8-azaspiro[4.5]dec-3-en-2-one], the Ki is less than 50 nM.
On to `COCCN1CCC2(CC1)OC(=O)C(C)=C2C(=O)N1CCc2ccc(C(F)(F)F)cc2C1` [Compound 16, 8-(2-methoxyethyl)-3-methyl-4-{[7-(trifluoromethyl)-3,4-dihydroisoquinolin-2(1H)-yl]carbonyl}-1-oxa-8-azaspiro[4.5]dec-3-en-2-one], for which the Ki was less than 50 nM.
As to `CC1=C(C(=O)N2CCc3ccc(C(F)(F)F)cc3C2)C2(CCN(CCF)CC2)OC1=O` [Compound 17, 8-(2-fluoroethyl)-3-methyl-4-{[7-(trifluoromethyl)-3,4-dihydroisoquinolin-2(1H)-yl]carbonyl}-1-oxa-8-azaspiro[4.5]dec-3-en-2-one], the Ki is less than 50 nM.
Regarding `COCCCN1CCC2(CC1)OC(=O)C(C)=C2C(=O)N1CCc2ccc(C(F)(F)F)cc2C1` [Compound 18, 8-(3-methoxypropyl)-3-methyl-4-{[7-(trifluoromethyl)-3,4-dihydroisoquinolin-2(1H)-yl]carbonyl}-1-oxa-8-azaspiro[4.5]dec-3-en-2-one], the Ki is less than 50 nM.
`CC1=C(C(=O)N2CCc3ccc(C(F)(F)F)cc3C2)C2(CCN(CCN3CCOCC3)CC2)OC1=O` [Compound 19, 3-methyl-8-(2-morpholin-4-ylethyl)-4-{[7-(trifluoromethyl)-3,4-dihydroisoquinolin-2(1H)-yl]carbonyl}-1-oxa-8-azaspiro[4.5]dec-3-en-2-one]: the Ki was less than 50 nM.
As to `CC1=C(C(=O)N2CCc3ccc(C(F)(F)F)cc3C2)C2(CCN(CCO)CC2)OC1=O` [Compound 20, 8-(2-hydroxyethyl)-3-methyl-4-{[7-(trifluoromethyl)-3,4-dihydroisoquinolin-2(1H)-yl]carbonyl}-1-oxa-8-azaspiro[4.5]dec-3-en-2-one], the Ki is less than 50 nM.
On to `CC1=C(C(=O)N2CCN(c3cccc(C(F)(F)F)c3)CC2)C2(CCN(C3CCOCC3)CC2)OC1=O` [Compound 21, 3-methyl-8-(tetrahydro-2H-pyran-4-yl)-4-({4-[3-(trifluoromethyl)phenyl]piperazin-1-yl}carbonyl)-1-oxa-8-azaspiro[4.5]dec-3-en-2-one], for which the Ki is less than 50 nM.
Turning to `CC1=C(C(=O)N2CCN(c3cccc(C(F)(F)F)c3)CC2)C2(CCN(CC3CCOC3)CC2)OC1=O` (stereo not drawn) [Compound 22, 3-methyl-8-(tetrahydrofuran-3-ylmethyl)-4-({4-[3-(trifluoromethyl)phenyl]piperazin-1-yl}carbonyl)-1-oxa-8-azaspiro[4.5]dec-3-en-2-one], the Ki is less than 50 nM.
In the case of `CC1=C(C(=O)N2CCN(c3cccc(C(F)(F)F)c3)CC2)C2(CCN(C3CCCOC3)CC2)OC1=O` (stereo not drawn) [Compound 23], the Ki is less than 50 nM.
For the compound `CC1=C(C(=O)N2CCN(c3cccc(C(F)(F)F)c3)CC2)C2(CCN(C3CCC(C(=O)O)CC3)CC2)OC1=O` (stereo not drawn) [Compound 24, 4-[3-methyl-2-oxo-4-({4-[3-(trifluoromethyl)phenyl]piperazin-1-yl}carbonyl)-1-oxa-8-azaspiro[4.5]dec-3-en-8-yl]cyclohexanecarboxylic acid], the Ki was 50 to 100 nM.
Take `COc1ccc(C2(O)CCC(N3CCC4(CC3)OC(=O)C(C)=C4C(=O)N3CCc4ccc(C(F)(F)F)cc4C3)CC2)cn1` (stereo not drawn) [Compound 25, 8-[4-hydroxy-4-(6-methoxypyridin-3-yl)cyclohexyl]-3-methyl-4-{[7-(trifluoromethyl)-3,4-dihydroisoquinolin-2(1H)-yl]carbonyl}-1-oxa-8-azaspiro[4.5]dec-3-en-2-one]: the Ki was less than 50 nM.
For the compound `CC1=C(C(=O)N2CCc3ccc(C(F)(F)F)cc3C2)C2(CCN(C)CC2)OC1=O` [Compound 27, 3,8-dimethyl-4-{[7-(trifluoromethyl)-3,4-dihydroisoquinolin-2(1H)-yl]carbonyl}-1-oxa-8-azaspiro[4.5]dec-3-en-2-one], the Ki is less than 50 nM.
As to `CCCN1CCC2(CC1)OC(=O)C(C)=C2C(=O)N1CCc2ccc(C(F)(F)F)cc2C1` [Compound 28, 3-methyl-8-propyl-4-{[7-(trifluoromethyl)-3,4-dihydroisoquinolin-2(1H)-yl]carbonyl}-1-oxa-8-azaspiro[4.5]dec-3-en-2-one], the Ki is less than 50 nM.
As for `CC1=C(C(=O)N2CCc3ccc(C(F)(F)F)cc3C2)C2(CCN(C3CCCCC3)CC2)OC1=O` [Compound 29, 8-cyclohexyl-3-methyl-4-{[7-(trifluoromethyl)-3,4-dihydroisoquinolin-2(1H)-yl]carbonyl}-1-oxa-8-azaspiro[4.5]dec-3-en-2-one], the figure is less than 50 nM; as for `CC1=C(C(=O)N2CCc3ccc(C(F)(F)F)cc3C2)C2(CCN(C3CCCC3)CC2)OC1=O` [Compound 30, 8-cyclopentyl-3-methyl-4-{[7-(trifluoromethyl)-3,4-dihydroisoquinolin-2(1H)-yl]carbonyl}-1-oxa-8-azaspiro[4.5]dec-3-en-2-one], less than 50 nM.
On to `CC1=C(C(=O)N2CCc3ccc(C(F)(F)F)cc3C2)C2(CCN(C3CCC(O)CC3)CC2)OC1=O` (stereo not drawn) [Compound 31, 8-(4-hydroxycyclohexyl)-3-methyl-4-{[7-(trifluoromethyl)-3,4-dihydroisoquinolin-2(1H)-yl]carbonyl}-1-oxa-8-azaspiro[4.5]dec-3-en-2-one], for which the Ki is less than 50 nM.
`CC1=C(C(=O)N2CCc3ccc(C(F)(F)F)cc3C2)C2(CCN(C3COC3)CC2)OC1=O` [Compound 32, 3-methyl-8-oxetan-3-yl-4-{[7-(trifluoromethyl)-3,4-dihydroisoquinolin-2(1H)-yl]carbonyl}-1-oxa-8-azaspiro[4.5]dec-3-en-2-one]: the inhibitory constant (Ki) lay in the range of 50 to 100 nM.
As for `CC1=C(C(=O)N2CCc3ccc(C(F)(F)F)cc3C2)C2(CCN(CC3CCOC3)CC2)OC1=O` (stereo not drawn) [Compound 33, 3-methyl-8-(tetrahydrofuran-3-ylmethyl)-4-{[7-(trifluoromethyl)-3,4-dihydroisoquinolin-2(1H)-yl]carbonyl}-1-oxa-8-azaspiro[4.5]dec-3-en-2-one], the Ki was less than 50 nM.
As for `CC1=C(C(=O)N2CCc3ccc(C(F)(F)F)cc3C2)C2(CCN(C3CCOC3)CC2)OC1=O` (stereo not drawn) [Compound 34, 3-methyl-8-(tetrahydrofuran-3-yl)-4-{[7-(trifluoromethyl)-3,4-dihydroisoquinolin-2(H)-yl]carbonyl}-1-oxa-8-azaspiro[4.5]dec-3-en-2-one], the figure is less than 50 nM; as for `CC1=C(C(=O)N2CCc3ccc(C(F)(F)F)cc3C2)C2(CCN(C3CCOC(C)(C)C3)CC2)OC1=O` (stereo not drawn) [Compound 35, 8-(2,2-dimethyltetrahydro-2H-pyran-4-yl)-3-methyl-4-{[7-(trifluoromethyl)-3,4-dihydroisoquinolin-2(1H)-yl]carbonyl}-1-oxa-8-azaspiro[4.5]dec-3-en-2-one], less than 50 nM.
With `CC1=C(C(=O)N2CCc3ccc(C(F)(F)F)cc3C2)C2(CCN(C3CCOC(C)C3)CC2)OC1=O` (stereo not drawn) [Compound 36, 3-methyl-8-(2-methyltetrahydro-2H-pyran-4-yl)-4-{[7-(trifluoromethyl)-3,4-dihydroisoquinolin-2(1H)-yl]carbonyl}-1-oxa-8-azaspiro[4.5]dec-3-en-2-one], the Ki is less than 50 nM.
With `CC1=C(C(=O)N2CCc3ccc(C(F)(F)F)cc3C2)C2(CCN(C3CCS(=O)(=O)CC3)CC2)OC1=O` [Compound 37, 8-(1,1-dioxidotetrahydro-2H-thiopyran-4-yl)-3-methyl-4-{[7-(trifluoromethyl)-3,4-dihydroisoquinolin-2(1H)-yl]carbonyl}-1-oxa-8-azaspiro[4.5]dec-3-en-2-one], the Ki lay in the range of 50 to 100 nM.
